Laboratory results from ChEMBL document CHEMBL1140396, “Novel C2-C3' N-peptide linked macrocyclic taxoids. Part 1: Synthesis and biological activities of docetaxel analogues with a peptide side chain at C3'” (Bioorg Med Chem Lett, 2005).

Legend:
[1] = Concentration that inhibits the rate of cold-induced microtubule disassembly; type: functional
[2] = tested on: KB; test: Concentration that inhibits cell proliferation (KB cell line) after 72 h of incubation; type: functional, cell-based; settings: Homo sapiens
[3] = Concentration that inhibits the rate of cold-induced microtubule disassembly; Inactive; type: functional

## CC(=O)O[C@@]12COC1C[C@H](O)C1C(=O)[C@H](O)C3=C(C)[C@@H](OC(=O)[C@H](O)[C@@H](NC(=O)N[C@H](C(=O)O)C(C)C)c4ccccc4)C[C@@](O)([C@@H](OC(=O)c4ccccc4)C12)C3(C)C (some centres undefined)
[1]
  IC50: 800 nM
[2]
  IC50: 670 nM

## CC(=O)O[C@@]12COC1C[C@H](O)C1C(=O)[C@H](O)C3=C(C)[C@@H](OC(=O)[C@H](O)[C@@H](NC(=O)NCC(=O)N[C@@H](COCc4ccccc4)C(=O)N[C@@H](Cc4ccc(OCc5ccccc5)cc4)C(=O)OCc4ccccc4)c4ccccc4)C[C@@](O)([C@@H](OC(=O)c4ccccc4)C12)C3(C)C (some centres undefined)
[3]
  IC50: Not Active
[2]
  IC50: 90 nM

## CC(=O)O[C@@]12COC1C[C@H](O)C1C(=O)[C@H](O)C3=C(C)[C@@H](OC(=O)[C@H](O)[C@@H](NC(=O)N[C@H](C(=O)OCc4ccccc4)C(C)C)c4ccccc4)C[C@@](O)([C@@H](OC(=O)c4ccccc4)C12)C3(C)C (some centres undefined)
[1]
  IC50: 800 nM
[2]
  IC50: 4 nM

## CC(=O)O[C@@]12COC1C[C@H](O)C1C(=O)[C@H](O)C3=C(C)[C@@H](OC(=O)[C@H](O)[C@@H](NC(=O)N[C@H](C(=O)N4CCC[C@H]4C(=O)NCC(=O)O)C(C)C)c4ccccc4)C[C@@](O)([C@@H](OC(=O)c4ccccc4)C12)C3(C)C (some centres undefined)
[1]
  IC50: 600 nM
[2]
  IC50: > 10000 nM

## CC(=O)O[C@@]12COC1C[C@H](O)C1C(=O)[C@H](O)C3=C(C)[C@@H](OC(=O)[C@H](O)[C@@H](NC(=O)N[C@H](C(=O)N4CCC[C@H]4C(=O)O)C(C)C)c4ccccc4)C[C@@](O)([C@@H](OC(=O)c4ccccc4)C12)C3(C)C (some centres undefined)
[1]
  IC50: 1700 nM
[2]
  IC50: 4500 nM

## CC(=O)O[C@@]12COC1C[C@H](O)C1C(=O)[C@H](O)C3=C(C)[C@@H](OC(=O)[C@H](O)[C@@H](NC(=O)N[C@H](C(=O)N4CCC[C@H]4C(=O)OCc4ccccc4)C(C)C)c4ccccc4)C[C@@](O)([C@@H](OC(=O)c4ccccc4)C12)C3(C)C (some centres undefined)
[1]
  IC50: 500 nM
[2]
  IC50: 50 nM

## CC(=O)O[C@@]12COC1C[C@H](O)C1C(=O)[C@H](O)C3=C(C)[C@@H](OC(=O)[C@H](O)[C@@H](NC(=O)N[C@H](C(=O)N4CCC[C@H]4C(=O)NCC(=O)OCc4ccccc4)C(C)C)c4ccccc4)C[C@@](O)([C@@H](OC(=O)c4ccccc4)C12)C3(C)C (some centres undefined)
[1]
  IC50: 400 nM
[2]
  IC50: 100 nM

## CC(=O)O[C@@]12COC1C[C@H](O)C1C(=O)[C@H](O)C3=C(C)[C@@H](OC(=O)[C@H](O)[C@@H](NC(=O)NCC(=O)N[C@@H](CO)C(=O)N[C@@H](Cc4ccc(O)cc4)C(=O)O)c4ccccc4)C[C@@](O)([C@@H](OC(=O)c4ccccc4)C12)C3(C)C (some centres undefined)
[1]
  IC50: 1000 nM
[2]
  IC50: 1050 nM

## CC(=O)O[C@@]12COC1C[C@H](O)C1C(=O)[C@H](O)C3=C(C)[C@@H](OC(=O)[C@H](O)[C@@H](NC(=O)OC(C)(C)C)c4ccccc4)C[C@@](O)([C@@H](OC(=O)c4ccccc4)C12)C3(C)C (some centres undefined)
[1]
  IC50: 500 nM
[2]
  IC50: 1 nM

## CC(=O)O[C@@]12COC1C[C@H](O)C1C(=O)[C@H](O)C3=C(C)[C@@H](OC(=O)[C@H](O)[C@@H](NC(=O)N[C@H](C(=O)N4CCC[C@H]4C(=O)NCC(=O)NCC(=O)OCc4ccccc4)C(C)C)c4ccccc4)C[C@@](O)([C@@H](OC(=O)c4ccccc4)C12)C3(C)C (some centres undefined)
[1]
  IC50: 300 nM
[2]
  IC50: 4000 nM

## CC(=O)O[C@@]12COC1C[C@H](O)C1C(=O)[C@H](O)C3=C(C)[C@@H](OC(=O)[C@H](O)[C@@H](NC(=O)N[C@H](C(=O)N4CCC[C@H]4C(=O)NCC(=O)NCC(=O)O)C(C)C)c4ccccc4)C[C@@](O)([C@@H](OC(=O)c4ccccc4)C12)C3(C)C (some centres undefined)
[1]
  IC50: 500 nM
[2]
  IC50: > 10000 nM

## COC(=O)[C@H](CCSC)NC(=O)[C@H](Cc1ccccc1)NC(=O)[C@@H](NC(=O)N[C@@H](c1ccccc1)[C@@H](O)C(=O)O[C@H]1C[C@@]2(O)[C@@H](OC(=O)c3ccccc3)C3C(C(=O)[C@H](O)C(=C1C)C2(C)C)[C@@H](O)CC1OC[C@]13OC(C)=O)C(C)C (some centres undefined)
[1]
  IC50: 2600 nM
[2]
  IC50: 1100 nM
